Test results published in patent US9113629B2, “4-amino-6-(4-substituted-phenyl)-picolinates and 6-amino-2-(4-substituted-phenyl)-pyrimidine-4-carboxylates and their use as herbicides” (DOW AGROSCIENCES LLC, priority 2013, dated 2015).
Read-outs that look alike come from different tables or passages of the source.

How the values were obtained:
Assay in all cases: Post-emergent Test III, herbicidal activity in wheat and barley
Type in all cases: in vivo
[1] = system: SASKR: Russian thistle (Salsola iberica); details: for pest or weed control at 35 g/ha: 35 g ai/ha; for pest or weed control at 70 g/ha: 70 g ai/ha; for GR50 SASKR: dose for 50 percent growth reduction; for GR50 SASKR / GR80 SASKR: probit analysis; for GR80 SASKR: dose for 80 percent growth reduction
Method in brief: (§1)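 GR20, GR50, GR80 and GR90 come from probit analysis of visual injury scores (0 = none, 100 = complete kill) taken 21 d after treatment. Foliar application was by track sprayer delivering 187 L/ha at five rates, from high down to 1/16×, onto greenhouse plants at the 2–3 leaf stage, with solvent-blank controls.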

[2] = system: CIRAR: Canada thistle (Cirsium arvense); details: Table 8, 21 d; for pest or weed control at 35 g/ha: 35 g ai/ha; for pest or weed control at 70 g/ha: 70 g ai/ha; for GR50 CIRAR: dose for 50 percent growth reduction; for GR50 CIRAR / GR80 CIRAR: probit analysis; for GR80 CIRAR: dose for 80 percent growth reduction
Method in brief: as §1

[3] = system: GALAP: cleavers (Galium aparine); details: Table 8, 21 d; for pest or weed control at 35 g/ha: 35 g ai/ha; for pest or weed control at 70 g/ha: 70 g ai/ha; for GR50 GALAP: dose for 50 percent growth reduction; for GR50 GALAP / GR80 GALAP: probit analysis; for GR80 GALAP: dose for 80 percent growth reduction
Method in brief: as §1

[4] = system: STEME: common chickweed (Stellaria media); details: for pest or weed control at 35 g/ha / pest or weed control at 70 g/ha / pest or weed control at 140 g/ha: Stellaria media, post-emergence, 504 h, read-out: Visual Growth Reduction (%) 21 Days After Application STEME; for pest or weed control at 35 g/ha: 35 g ai/ha; for pest or weed control at 70 g/ha: 70 g ai/ha; for pest or weed control at 140 g/ha: 140 g ai/ha; for GR50 STEME / GR80 STEME: probit analysis, 21 days after application; for GR50 STEME: dose for growth reduction of 50 percent; for GR80 STEME: dose for growth reduction of 80 percent
Method in brief: as §1

[5] = system: PHAMI: lesser canary grass (Phalaris minor); details: for pest or weed control at 35 g/ha / pest or weed control at 70 g/ha / pest or weed control at 140 g/ha: Phalaris minor, post-emergence, 504 h, read-out: Visual Growth Reduction (%) 21 Days After Application PHAMI; for pest or weed control at 35 g/ha: 35 g ai/ha; for pest or weed control at 70 g/ha: 70 g ai/ha; for pest or weed control at 140 g/ha: 140 g ai/ha; for GR50 PHAMI / GR80 PHAMI: probit analysis, 21 days after application; for GR50 PHAMI: dose for growth reduction of 50 percent; for GR80 PHAMI: dose for growth reduction of 80 percent
Method in brief: as §1

[6] = Salsola tragus, post-emergence, 504 h, Table 8, post-emergent, 21 d, read-out: Visual Growth Reduction (%) 21 Days After Application SASKR
[7] = Cirsium arvense, post-emergence, 504 h, post-emergent, read-out: Visual Growth Reduction (%) 21 Days After Application CIRAR
[8] = Galium aparine, post-emergence, 504 h, post-emergent, read-out: Visual Growth Reduction (%) 21 Days After Application GALAP
[9] = Salsola tragus, post-emergence, 504 h, 21 days after application, read-out: Visual Gorowth Reduction (%) 21 days After Application SASKR

Row | SMILES | pest or weed control at 35 g/ha [4] | pest or weed control at 70 g/ha [4] | pest or weed control at 140 g/ha [4] | GR50 STEME [4] | GR80 STEME [4] | pest or weed control at 35 g/ha [5] | pest or weed control at 70 g/ha [5] | pest or weed control at 140 g/ha [5] | GR50 PHAMI [5] | GR80 PHAMI [5] | other results
1 | COc1c(N)nc(-c2ccc(I)c(F)c2)nc1C(=O)O [Compound 37, 6-Amino-2-(3-fluoro-4-iodophenyl)-5-methoxypyrimidine-4-carboxylic acid] | – | – | – | – | – | – | – | – | – | – | pest or weed control at 35 g/ha [1, 6]: 45 to 59%; pest or weed control at 70 g/ha [1, 6]: 60 to 74%; GR50 SASKR ([1]; Table 8, 21 d): 33 g ai/ha; GR80 SASKR ([1]; Table 8, 21 d): 104 g ai/ha; pest or weed control at 35 g/ha [2, 7]: 45 to 59%; pest or weed control at 70 g/ha [2, 7]: 75 to 84%; GR50 CIRAR [2]: 23 g ai/ha; GR80 CIRAR [2]: 103 g ai/ha; pest or weed control at 35 g/ha [3, 8]: 85 to 94%; pest or weed control at 70 g/ha [3, 8]: 95 to 100%; GR50 GALAP [3]: 14 g ai/ha; GR80 GALAP [3]: 31 g ai/ha
2 | COC(=O)c1nc(-c2ccc(Br)c(F)c2)nc(N)c1OC [Compound 171, Methyl 6-amino-2-(4-bromo-3-fluorophenyl)-5-methoxypyrimidine-4-carboxylate] | – | – | – | – | – | – | – | – | – | – | pest or weed control at 35 g/ha [1, 6]: 60 to 74%; pest or weed control at 70 g/ha [1, 6]: 75 to 84%; GR50 SASKR ([1]; Table 8, 21 d): 21 g ai/ha; GR80 SASKR ([1]; Table 8, 21 d): 67 g ai/ha; pest or weed control at 35 g/ha [2, 7]: 60 to 74%; pest or weed control at 70 g/ha [2, 7]: 60 to 74%; GR50 CIRAR [2]: 17 g ai/ha; GR80 CIRAR [2]: 80 g ai/ha; pest or weed control at 35 g/ha [3, 8]: 85 to 94%; pest or weed control at 70 g/ha [3, 8]: 95 to 100%; GR80 GALAP [3]: 23 g ai/ha
3 | COC(=O)c1nc(-c2ccc(Br)cc2)c(F)c(N)c1Cl [Compound 138, Methyl 4-amino-6-(4-bromophenyl)-3-chloro-5-fluoropicolinate] | 30 to 44% | 30 to 44% | 45 to 59% | 125 g ai/ha | >140 g ai/ha | 45 to 59% | 75 to 84% | 85 to 94% | 31 g ai/ha | 78 g ai/ha | –
4 | COC(=O)c1nc(-c2ccc(C#N)c(F)c2)c(F)c(N)c1Cl [Compound 135, methyl 4-amino-3-chloro-6-(4-cyano-3-fluorophenyl)-5-fluoropicolinate] | – | – | – | – | – | – | – | – | – | – | pest or weed control at 35 g/ha [1, 6]: 60 to 74%; pest or weed control at 70 g/ha [1, 6]: 60 to 74%; pest or weed control at 140 g/ha ([1]; Salsola tragus, post-emergence, 504 h, Table 8, 140 g ai/ha, post-emergent, 21 d, read-out: Visual Growth Reduction (%) 21 Days After Application SASKR): 75 to 84%; GR50 SASKR ([1]; Table 8, 21 d): 3 g ai/ha; GR80 SASKR ([1]; Table 8, 21 d): >140 g ai/ha; pest or weed control at 35 g/ha [2, 7]: 85 to 94%; pest or weed control at 70 g/ha [2, 7]: 85 to 94%; pest or weed control at 140 g/ha ([2]; Cirsium arvense, post-emergence, 504 h, 140 g ai/ha, post-emergent, read-out: Visual Growth Reduction (%) 21 Days After Application CIRAR): 85 to 94%; GR50 CIRAR [2]: 1 g ai/ha; GR80 CIRAR [2]: 13 g ai/ha; pest or weed control at 35 g/ha [3, 8]: 60 to 74%; pest or weed control at 70 g/ha [3, 8]: 95 to 100%; pest or weed control at 140 g/ha ([3]; Galium aparine, post-emergence, 504 h, 140 g ai/ha, post-emergent, read-out: Visual Growth Reduction (%) 21 Days After Application GALAP): 95 to 100%; GR50 GALAP [3]: 12 g ai/ha; GR80 GALAP [3]: 38 g ai/ha
5 | COC(=O)c1nc(-c2ccc(OC(F)F)cc2)c(F)c(N)c1Cl [Compound 85] | 0 to 29% | 0 to 29% | 0 to 29% | 57 g ai/ha | 123 g ai/ha | 0 to 29% | 0 to 29% | 0 to 29% | >140 g ai/ha | >140 g ai/ha | –
6 | Nc1c(F)c(-c2ccc(Br)cc2)nc(C(=O)O)c1Cl [Compound 20] | 75 to 84% | 95 to 100% | 95 to 100% | 8 g ai/ha | 25 g ai/ha | 85 to 94% | 85 to 94% | 85 to 94% | 5 g ai/ha | 25 g ai/ha | –
7 | Nc1cc(-c2ccc(I)cc2F)nc(C(=O)O)c1Cl [Compound 124] | – | – | – | – | – | – | – | – | – | – | pest or weed control at 35 g/ha [1, 6]: 60 to 74%; pest or weed control at 70 g/ha [1, 6]: 85 to 94%; GR50 SASKR ([1]; Table 8, 21 d): 12 g ai/ha; GR80 SASKR ([1]; Table 8, 21 d): 53 g ai/ha; pest or weed control at 35 g/ha [2, 7]: 60 to 74%; pest or weed control at 70 g/ha [2, 7]: 75 to 84%; GR50 CIRAR [2]: 24 g ai/ha; GR80 CIRAR [2]: 91 g ai/ha; pest or weed control at 35 g/ha [3, 8]: 85 to 94%; pest or weed control at 70 g/ha [3, 8]: 95 to 100%; GR50 GALAP [3]: 6 g ai/ha; GR80 GALAP [3]: 21 g ai/ha
8 | N#Cc1ccc(-c2nc(C(=O)O)c(Cl)c(N)c2F)cc1 [Compound 39] | 0 to 29% | 30 to 44% | 45 to 59% | 111 g ai/ha | >140 g ai/ha | 0 to 29% | 30 to 44% | 45 to 59% | 118 g ai/ha | >140 g ai/ha | –
9 | Nc1c(F)c(-c2ccc(I)cc2)nc(C(=O)O)c1Cl [Compound 45, 4-amino-3-chloro-5-fluoro-6-(4-iodophenyl)picolinic acid] | 30 to 44% | 30 to 44% | 30 to 44% | 75 g ai/ha | >140 g ai/ha | 75 to 84% | 85 to 94% | 95 to 100% | 15 g ai/ha | 32 g ai/ha | –
10 | COC(=O)c1nc(-c2ccc(I)cc2)c(F)c(N)c1Cl [Compound 118, Methyl 4-amino-6-(4-iodophenyl)-3-chloro-5-fluoropicolinate] | 30 to 44% | 30 to 44% | 30 to 44% | 1 g ai/ha | 1 g ai/ha | 0 to 29% | 60 to 74% | 75 to 84% | 68 g ai/ha | 126 g ai/ha | –
11 | C=Cc1c(C(=O)O)nc(-c2ccc(C(F)(F)F)c(F)c2)c(F)c1N [Compound 86] | – | – | – | – | – | – | – | – | – | – | pest or weed control at 35 g/ha [1, 9]: 60 to 74%; pest or weed control at 70 g/ha [1, 9]: 75 to 84%; GR50 SASKR ([1]; 21 days after application): 18 g ai/ha; GR80 SASKR ([1]; 21 days after application): 66 g ai/ha
12 | COC(=O)c1nc(-c2ccc(C#N)cc2)c(F)c(N)c1Cl [Compound 142] | 0 to 29% | 0 to 29% | 0 to 29% | >140 g ai/ha | >140 g ai/ha | 0 to 29% | 0 to 29% | 0 to 29% | >140 g ai/ha | >140 g ai/ha | –
13 | Nc1c(F)c(-c2ccc(OC(F)F)cc2)nc(C(=O)O)c1Cl [Compound 143] | 0 to 29% | 0 to 29% | 0 to 29% | >140 g ai/ha | >140 g ai/ha | 0 to 29% | 30 to 44% | 60 to 74% | 112 g ai/ha | >140 g ai/ha | –
14 | COC(=O)c1nc(-c2ccc(Br)c(F)c2F)cc(N)c1Cl [Compound 114, methyl 4-amino-6-(4-bromo-2,3-difluorophenyl)-3-chloropicolinate] | 0 to 29% | 0 to 29% | 0 to 29% | >140 g ai/ha | >140 g ai/ha | 0 to 29% | 0 to 29% | 0 to 29% | >140 g ai/ha | >140 g ai/ha | –
15 | Nc1c(F)c(-c2cc(F)c(I)cc2F)nc(C(=O)O)c1Cl [Compound 69] | – | – | – | – | – | – | – | – | – | – | pest or weed control at 35 g/ha [1, 9]: 85 to 94%; pest or weed control at 70 g/ha [1, 9]: 85 to 94%; GR50 SASKR ([1]; 21 days after application): 7 g ai/ha; GR80 SASKR ([1]; 21 days after application): 29 g ai/ha
